Reference: PubChem BioAssay (NCI)
Values joined by “and” are separate entries in the source; they are usually repeats but may differ in a detail not shown here. Identical values can stand only once.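 Interpolation was linear, between the two tested concentrations surrounding the appropriate level; five concentrations were tested over 48 hours in 96-well plates. The concentration for 50% growth inhibition is given as GI50. TGI is the concentration that stops growth completely.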

Key:
Test in all cases: growth of human tumour cells (NCI), 48 h
786-0 renal = system: 786-0 renal
HCT-116 colon = system: HCT-116 colon
HCT-15 colon = system: HCT-15 colon
NCI-H226 lung = system: NCI-H226 lung
NCI-H522 lung = system: NCI-H522 lung
OVCAR-8 ovarian = system: OVCAR-8 ovarian
SF-539 CNS = system: SF-539 CNS
SK-MEL-28 melanoma = system: SK-MEL-28 melanoma
SR leukemia = system: SR leukemia
UO-31 renal = system: UO-31 renal

Structure (SMILES) | GI50 (786-0 renal) | TGI (786-0 renal) | GI50 (HCT-116 colon) | TGI (HCT-116 colon) | GI50 (HCT-15 colon) | TGI (HCT-15 colon) | GI50 (NCI-H226 lung) | TGI (NCI-H226 lung) | GI50 (NCI-H522 lung) | TGI (NCI-H522 lung) | GI50 (OVCAR-8 ovarian) | TGI (OVCAR-8 ovarian) | GI50 (SF-539 CNS) | TGI (SF-539 CNS) | GI50 (SK-MEL-28 melanoma) | TGI (SK-MEL-28 melanoma) | GI50 (SR leukemia) | TGI (SR leukemia) | GI50 (UO-31 renal) | TGI (UO-31 renal)
O=C1OCC2=C1C(c1ccc(Cl)c(Cl)c1)c1cc3c(cc1N2CCO)OCCO3 (stereo unspecified) | 0.277 µM | 7.62 µM | 0.213 µM | 8.78 µM | 0.245 µM | > 50 µM | 0.29 µM | 7.71 µM | 0.0852 µM | 0.283 µM | 0.389 µM | 7.24 µM | 0.177 µM | 1.74 µM | 0.412 µM | > 38.6 µM | 0.187 µM | 21.7 µM | 0.256 µM | 30.6 µM
Fc1ccc(/C=N/n2c(-c3ccc(F)c(Cl)c3)nn(CNc3ccccc3C(F)(F)F)c2=S)cc1 | 75.4 µM | > 100 µM | 55.4 µM | > 100 µM | 79.4 µM | > 100 µM | 69.5 µM | > 100 µM | 24.4 µM | 76.3 µM | 43.1 µM | > 100 µM | 93.2 µM | > 100 µM | 97.2 µM | > 100 µM | 31.2 µM | > 100 µM | 34.8 µM | > 100 µM
O=C(O)c1ccc(C(=O)c2ccccc2)c(C(=O)O)c1 |  | > 100 µM |  | > 100 µM |  | > 100 µM |  | > 100 µM |  | > 100 µM |  | > 100 µM |  | > 100 µM |  | > 100 µM |  | > 100 µM |  | > 100 µM
CN1C(=O)N(C)C2C1NN=c1s/c(=C\c3ccc(C(F)(F)F)cc3)c(=O)n12 (stereo unspecified) | 3.82 µM | > 100 µM | 1.55 µM | > 100 µM | 0.488 µM | > 100 µM | 27 µM | > 100 µM | 0.355 µM | 2.25 µM | 2.71 µM | 55.7 µM | 0.983 µM | 6.26 µM | 10.2 µM | > 100 µM | 0.329 µM | > 100 µM | 2.21 µM | > 100 µM
COc1ccc2c(c1)N(CCO)C1=C(C(=O)OC1)C2c1cccc(F)c1 (stereo unspecified) | 0.644 µM | > 50 µM | 0.406 µM | > 50 µM | 0.233 µM | > 50 µM | 4.16 µM | > 50 µM | 0.118 µM | 1.08 µM | 1.24 µM | > 50 µM | 0.332 µM | 3.19 µM | 5.59 µM | > 50 µM | 0.195 µM | > 50 µM | 0.413 µM | > 50 µM
COc1ccc2cc1Oc1ccc(cc1)C[C@H]1c3c(cc4c(c3Oc3cc5c(cc3OC)CCN(C)[C@@H]5C2)OCO4)CCN1C | 5.57 µM | 12 µM | 0.726 µM | 6.8 µM | 2.02 µM | 8.34 µM | 4.1 µM | 11.5 µM | 1.43 µM | 6.77 µM | 2.36 µM | 9.9 µM | 0.826 µM | 1.63 µM | 0.911 µM | 1.86 µM | 0.908 µM | 2.87 µM | 5.41 µM | 11.7 µM
Cc1ccc(/C=N\NC(=O)c2[nH]c3ccc(F)cc3c2-c2ccccc2)cc1 | 0.0387 µM | 23.2 µM | 0.027 µM | 0.855 µM | 0.0288 µM |  | 0.0321 µM | > 100 µM | 0.014 µM | 0.569 µM | 0.0389 µM | > 100 µM | 0.0297 µM | 0.965 µM | 1.15 µM | > 100 µM | 0.0323 µM | > 64.2 µM | 0.0472 µM | > 46 µM
C=CC(=O)Nc1cccc(Oc2nc(Nc3ccc(N4CCN(C)CC4)cc3)nc3ccsc23)c1 | 1.3 µM and 2.07 µM | 3.25 µM and 4.62 µM | 1.48 µM and 1.81 µM | 2.93 µM and 3.33 µM | 2.32 µM and 2.54 µM | 9.5 µM and 10.6 µM | 8.23 µM and 10.4 µM | > 10 µM and 36.9 µM | 0.43 µM and 1.27 µM | 2.21 µM and 3.04 µM | 3.59 µM and 3.63 µM | > 10 µM and 11.7 µM | 1.62 µM and 1.75 µM | 3.02 µM and 3.23 µM | 1.87 µM and 1.89 µM | 3.49 µM and 3.71 µM | 2.23 µM | 5.73 µM | 0.962 µM and 1.11 µM | 3.69 µM and 3.38 µM
CC(=O)Nc1ccc(SC#N)c2c(NC(C)=O)cccc12 |  | > 100 µM |  | > 100 µM |  | > 100 µM |  | > 100 µM |  | > 78.4 µM |  | > 100 µM |  | > 100 µM |  | > 100 µM |  | > 100 µM |  | > 100 µM
O=S(=O)(c1ccc(Cl)cc1)C(Cl)(Cl)Cl | 0.968 µM | 18.1 µM | 2.43 µM | 11.3 µM | 1.19 µM | > 100 µM | 4.86 µM | 21.9 µM | 2.95 µM | 21 µM | 3.5 µM | 35.5 µM | 3.17 µM | 29 µM | 4.47 µM | 24 µM | 0.486 µM | 39.7 µM | 0.298 µM | 11.5 µM
COc1cc(C(=O)C/C(CCC(=O)Nc2ccccc2[N+](=O)[O-])=N\NC(N)=O)ccc1O |  | > 100 µM |  | > 100 µM |  | > 100 µM |  | > 100 µM |  | > 100 µM |  | > 100 µM |  | > 100 µM |  | > 100 µM |  | > 100 µM |  | > 100 µM
COC(=O)C1(C)CCc2c(OC)ccc(OC)c2C1=O (stereo unspecified) |  | > 100 µM |  | > 100 µM |  | > 100 µM |  | > 100 µM |  | > 100 µM |  | > 100 µM |  | > 100 µM |  | > 100 µM |  | > 100 µM |  | > 100 µM
O=C(O)CN1CCN(CC(=O)O)CC(=O)[O][Hg][O]C(=O)C1 | 17.1 µM | 32.2 µM | 17.9 µM | 33.7 µM | 21.1 µM | 46.5 µM | > 100 µM | > 100 µM | 6.75 µM | > 47.6 µM | 22.4 µM | 49.4 µM | 60.1 µM | > 100 µM | 19.2 µM | 34.8 µM | 14.8 µM | 38.6 µM | 17.5 µM | 31.4 µM
NC(=O)c1csc(C2OC(CO)C(O)C2O)n1 (stereo unspecified) | 15.5 µM | 3460 µM |  | 6870 µM | 4.97 µM | 1440 µM | 99.2 µM | > 9450 µM | 42.7 µM | 678 µM | 31.1 µM | 1570 µM | 47.9 µM | 3590 µM | > 80.6 µM and 17.2 µM | 1690 µM | 103 µM | > 6090 µM | 44.6 µM | 1740 µM
CC1(O)C=CC(=O)C=C1 |  | 49.6 µM |  | > 100 µM |  | 31.7 µM |  | > 100 µM |  | 33.7 µM |  | > 68.8 µM |  | 54.9 µM |  | 38.5 µM |  | 61.2 µM |  | > 84.5 µM
O=c1[nH]c(=O)n(C2CC(O)C(COP(=O)(OCc3ccc([N+](=O)[O-])o3)N(CCCCCl)CC(O)CO)O2)cc1F (stereo unspecified) | 0.624 µM | > 100 µM | 0.999 µM | > 100 µM | 4.53 µM | > 100 µM | 0.157 µM | > 55.2 µM | 0.985 µM | 77.4 µM | 0.182 µM | > 100 µM | < 0.0348 µM |  | > 100 µM | > 100 µM | < 0.0269 µM | > 100 µM | 0.174 µM | > 100 µM
O=C1OC(=O)C(=C\c2ccc3c(c2)OCO3)/C1=C/c1ccc2c(c1)OCO2 |  | > 100 µM |  | > 100 µM |  | > 100 µM |  | > 100 µM |  | > 100 µM |  | > 100 µM |  | > 100 µM |  | > 100 µM |  | > 90.8 µM |  | > 100 µM
C[C@@H]1CN(Cc2ccc(F)cc2)[C@@H](C)CN1C(=O)c1cc2c(C(=O)C(=O)N(C)C)cn(C)c2cc1Cl | 21.2 µM | 67.1 µM | 21.6 µM | > 71.9 µM | 18.3 µM | 47.3 µM | 12.2 µM | 31.1 µM | 15.8 µM | 43.4 µM | 17.6 µM | 48.8 µM | 14.9 µM | 29.7 µM | 13 µM | 35.2 µM | 13.4 µM | 39.2 µM | 15.3 µM | > 81.9 µM
O=C1OCC2=C1C(c1ccccc1)c1cc3c(cc1N2)OCO3 (stereo unspecified) | 0.055 µM | > 69.3 µM | 0.0352 µM | > 100 µM | 0.0373 µM | > 53.1 µM | 0.0245 µM | 0.0742 µM | < 0.011 µM | 1.56 µM | 0.0437 µM | > 48.2 µM | 0.0318 µM | 9.3 µM | 0.0428 µM | > 100 µM | < 0.0115 µM |  | 0.332 µM | > 100 µM
